According to PubChem BioAssay (NCI):
“And” between values parts separate entries of the source, which are not always exact repeats. Equal values may be shown once.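 Where inhibition never reached the appropriate level, the endpoint shown equals the highest concentration tested. Otherwise, values were interpolated linearly from a five-concentration, 48-hour dose response in 96-well plates. GI50 is the concentration that inhibits growth by half. TGI: total growth inhibition.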

Columns and labels:
Experiment in all cases: growth of human tumour cells (NCI), 48 h
DU-145 prostate = system: DU-145 prostate
SK-MEL-28 melanoma = system: SK-MEL-28 melanoma
UACC-257 melanoma = system: UACC-257 melanoma
SN12C renal = system: SN12C renal
OVCAR-4 ovarian = system: OVCAR-4 ovarian
SK-MEL-5 melanoma = system: SK-MEL-5 melanoma
SF-539 CNS = system: SF-539 CNS
SNB-75 CNS = system: SNB-75 CNS
HT29 colon = system: HT29 colon
RPMI-8226 leukemia = system: RPMI-8226 leukemia

| SMILES | TGI (DU-145 prostate) | TGI (SK-MEL-28 melanoma) | TGI (UACC-257 melanoma) | TGI (SN12C renal) | TGI (OVCAR-4 ovarian) | TGI (SK-MEL-5 melanoma) | TGI (SF-539 CNS) | TGI (SNB-75 CNS) | TGI (HT29 colon) [µM] | TGI (RPMI-8226 leukemia) [µM] | GI50 (DU-145 prostate) | GI50 (SN12C renal) | GI50 (SF-539 CNS) | GI50 (RPMI-8226 leukemia) | GI50 (SK-MEL-28 melanoma) [µM] | GI50 (UACC-257 melanoma) [µM] | GI50 (OVCAR-4 ovarian) [µM] | GI50 (SK-MEL-5 melanoma) [µM] | GI50 (SNB-75 CNS) [µM] | GI50 (HT29 colon) [µM] |
| --- | --- | --- | --- | --- | --- | --- | --- | --- | --- | --- | --- | --- | --- | --- | --- | --- | --- | --- | --- | --- |
| CCCN1C(=O)CCC2=C1CCc1c2ccc(Cl)c1Cl | > 100 µM | > 100 µM | > 100 µM | > 100 µM | > 100 µM | 60.4 µM | 95.4 µM | 33.9 µM | > 100 | > 100 | – | – | – | – | – | – | – | – | – | – |
| COc1cc([C@@H]2c3cc4c(cc3[C@@H](NCCNCCO)[C@H]3COC(=O)[C@H]23)OCO4)cc(OC)c1O | 9.83 µM and > 33.9 µM | 9.5 µM and 9.02 µM | > 30.5 µM and 39.9 µM | 24.1 µM and 3.19 µM | 47.4 µM and > 84.8 µM | 5.14 µM and 6.05 µM | 3.13 µM and 1.04 µM | 8.64 µM and 5.94 µM | > 29.9 | 3.84 | 1.82 µM and 3.88 µM | 0.934 µM and 0.331 µM | 0.702 µM and 0.171 µM | 0.46 µM and 0.522 µM | – | – | – | – | – | – |
| O=C(/C=C/c1ccc(O)c(O)c1)OCCc1cccc2ccccc12 | 18.6 µM | 16.9 µM | 28.2 µM | 7.96 µM | 23.9 µM | 5.31 µM | 18.2 µM | 9.57 µM | 27.5 | 20.5 | – | – | – | – | – | – | – | – | – | – |
| CC(=O)OCC1OC(n2c(N)c(C#N)c(-c3ccccc3)c(C#N)c2=S)C(OC(C)=O)C(OC(C)=O)C1OC(C)=O (centres undefined) | > 100 µM | > 100 µM | > 100 µM | > 100 µM | > 100 µM | > 100 µM | > 100 µM | 30 µM | > 100 | > 100 | – | – | – | – | – | – | – | – | – | – |
| O=C(Oc1ccccc1)c1cc2cc(CCl)ccc2oc1=O | 98.7 µM | > 100 µM | 27.5 µM | 67.4 µM | 68.9 µM | 27.5 µM | > 100 µM | 57.3 µM | > 100 | > 100 | – | – | – | – | – | – | – | – | – | – |
| O=C1C2C=CC1C1C(=O)OC(=O)C21 (centres undefined) | > 100 µM | > 100 µM | > 100 µM | > 100 µM | > 100 µM | > 100 µM | > 100 µM | > 100 µM | > 100 | > 100 | – | – | – | – | – | – | – | – | – | – |
| CC(C)CCC1(O)O[C@H]2C[C@H]3[C@@H]4CCC5CC(=O)C=C[C@]5(C)[C@H]4CC[C@]3(C)[C@H]2[C@@H]1C (some centres undefined) | 28.2 µM | 25 µM | 28.3 µM | 28 µM | 24.3 µM | 26.7 µM | 31.7 µM | 28 µM | 26.9 | 21.4 | – | – | – | – | – | – | – | – | – | – |
| O=C(O)CSCC(=O)Nc1ccc2cccc3c2c1CC3 | > 100 µM | > 100 µM | > 100 µM | > 100 µM | > 100 µM | > 100 µM | > 100 µM | > 100 µM | > 100 | > 100 | – | – | – | – | – | – | – | – | – | – |
| O=C1OC(c2ccc(O)c(Cl)c2)(c2ccc(O)c(Cl)c2)c2ccc(Br)c3cccc1c23 (tested in a mixture with another compound) | 46.8 µM | 36 µM | 34.8 µM | 32 µM | 11.6 µM | 31.3 µM | 32.4 µM | 37.8 µM | 29.3 | 44.5 | – | – | – | – | – | – | – | – | – | – |
| COC(=O)C(CCC1C=CCC1)N=Cc1ccccc1 (centres undefined) | > 100 µM | > 100 µM | > 100 µM | > 100 µM | > 100 µM | > 100 µM | > 100 µM | > 100 µM | > 100 | 84.7 | – | – | – | – | – | – | – | – | – | – |
| CC(=O)Oc1ccc2c(c1)c1c(=O)oc(N(C)C)nc1n2Cc1ccccc1 | > 100 µM | > 100 µM | > 100 µM | > 100 µM | > 100 µM | > 100 µM | > 100 µM | > 100 µM | > 100 | > 100 | – | – | – | – | – | – | – | – | – | – |
| CC(C)(C)c1ccc(CN2CCN(C(c3ccccc3)c3ccc(Cl)cc3)CC2)cc1 (centres undefined) | > 100 µM | > 100 µM | > 100 µM | > 100 µM | > 100 µM | 73.1 µM | > 100 µM | > 100 µM | 56.9 | > 100 | – | – | – | – | – | – | – | – | – | – |
| c1ccc(C2SCC3=Nc4ccccc4CN32)cc1 (centres undefined) | > 100 µM | > 100 µM | > 100 µM | > 100 µM | > 100 µM | 32.2 µM | 99.2 µM | > 100 µM | 50.7 | > 100 | – | – | – | – | – | – | – | – | – | – |
| Cc1csc2nc(-c3ccc([N+](=O)[O-])cc3)c(/C=N/N=C(N)N)n12 | 4.3 µM | 3.23 µM | 3.05 µM | 3.28 µM | 3.04 µM | 3.96 µM | 3.08 µM | 2.97 µM | 3.21 | 4.12 | – | – | – | – | – | – | – | – | – | – |
| COc1cc(-c2[nH]ccc2Cl)oc1C1=C2N=C3C=C2C(C(C)C)C1CCCCCCCC3 (centres undefined) | 1.85 µM | 2.84 µM | 3.18 µM | 3 µM | 2.48 µM | 0.813 µM | 2.46 µM | 3.18 µM | 1.11 | 5.34 | – | – | – | – | – | – | – | – | – | – |
| CN1C(c2ccccc2)=CC(=O)C(O)=C(c2ccccc2)S1(=O)=O | > 100 µM | > 100 µM | > 100 µM | > 100 µM | > 100 µM | > 100 µM | > 100 µM | > 100 µM | > 100 | > 100 | – | – | – | – | – | – | – | – | – | – |
| NC1CC(=O)c2csc(Br)c21 (centres undefined) | > 52.1 µM | 37.9 µM | 34.8 µM | > 44.3 µM | 30.5 µM | > 59.2 µM | 8.24 µM | > 79.5 µM | 43.8 | 34.2 | – | – | – | – | – | – | – | – | – | – |
| Nc1nc(Cl)cc(NCC2(CO)CCC(Cc3ccccc3)C2)n1 (centres undefined) | > 100 µM | > 100 µM | > 50.7 µM | > 100 µM | > 100 µM | 15.6 µM | > 100 µM | > 89.9 µM | > 69.4 | 62.7 | – | – | – | – | – | – | – | – | – | – |
| COC(=O)C1=Nc2c(C)nn(-c3ccccc3)c2N=C(c2ccc(C)cc2)C1 | > 10 µM | > 10 µM | > 10 µM | > 10 µM | > 10 µM | > 10 µM | > 10 µM | > 10 µM | > 10 | > 10 | – | – | – | – | – | – | – | – | – | – |
| CCOP(=O)(/C=C\n1cnc2c(=O)n(C(C)=O)c(N)nc21)OCC | > 100 µM | > 100 µM | > 100 µM | > 100 µM | > 100 µM | > 100 µM | > 100 µM | > 100 µM | > 100 | > 100 | – | – | – | – | – | – | – | – | – | – |
| CC(=O)Nc1ccc(CNc2cc(=O)[nH]c(=O)[nH]2)cc1 | > 100 µM | > 100 µM | > 100 µM | > 100 µM | > 100 µM | > 100 µM | > 100 µM | > 100 µM | > 100 | > 100 | – | – | – | – | – | – | – | – | – | – |
| OCCN(CCO)c1ccc2c(C(F)(F)F)cc(C(F)(F)F)nc2n1 | > 100 µM | > 100 µM | > 100 µM | > 100 µM | > 100 µM | > 100 µM | > 100 µM | > 100 µM | > 100 | > 100 | – | – | – | – | – | – | – | – | – | – |
| O=C1OCC(C#Cc2ccccc2)=C1Cl | 11.8 µM | 5.16 µM | 40.2 µM | 12.3 µM | 73.1 µM | 23.5 µM | 19.5 µM | 46.2 µM | 12.9 | 4.61 | 1.6 µM | 2.89 µM | 2.52 µM | 1.56 µM | 1.7 | 4.34 | 15.5 | 10 | 19.8 | 1.05 |
| N#Cc1c(-c2ccccc2)/c(=C\O)c(=O)n2c1nc1ccccc12 | > 100 µM | > 100 µM | > 100 µM | > 100 µM | > 100 µM | > 100 µM | > 100 µM | 91.9 µM | > 100 | > 100 | – | – | – | – | – | – | – | – | – | – |
| CC(NS(C)(=O)=O)c1ccccc1 (centres undefined) | > 100 µM | > 100 µM | > 100 µM | > 100 µM | > 100 µM | > 100 µM | > 100 µM | > 100 µM | > 100 | > 100 | – | – | – | – | – | – | – | – | – | – |
